Test results: US20030013660A1, “Dioxolane analogs for improved inter-cellular delivery” (Shire BioChem Inc., priority 2000, published 2003)
Where two headings read alike, the source gives them in different places.

Key:
Assay in all cases: 3H-TdR (3H-thymidine) incorporation assay at 72 hr
SF-268 = assay type: cell-based, Human; settings: 3H-TdR incorporation at 72 hr
MCF-7 = assay type: cell-based, Human; settings: 3H-TdR incorporation at 72 hr
CCRF-CEM = assay type: cell-based; settings: 3H-TdR incorporation at 72 hr
Method: (§1) Table of IC50 Values (μM) for Controls
(§2) Exposition of 24 hr to drug, wash, incubated for another 48 hr (total of 72 hr assay)
(§3) (3H-Thymidine Incorporation Assay)

CEM/dCK- = assay type: cell-based; settings: for IC50: Homo sapiens, CCRF-CEM, read-out: IC50 CEM/dCK- 24 h, 24 h drug exposure, wash, another 48 hr, deoxycytidine kinase-deficient CCRF-CEM; for Factor* (Resistance Factor = Ratio of dCK- on Wild-type CCRF-CEM): ratio of IC50 CEM/dCK- to CCRF-CEM, 24 h
Method: as §1, §2, §3

H-460 = assay type: cell-based, Human; settings: 3H-TdR incorporation at 72 hr
[1] = Homo sapiens, SF-268, read-out: IC50 SF-268 24 h, 24 h drug exposure, wash, another 48 hr
[2] = Homo sapiens, MCF7, read-out: IC50 MCF-7 24 h, 24 h drug exposure, wash, another 48 hr
[3] = Homo sapiens, CCRF-CEM, read-out: IC50 CCRF-CEM 24 h, 24 h drug exposure, wash, another 48 hr
[4] = Homo sapiens, NCI-H460, read-out: IC50 H-460 24 h, 24 h drug exposure, wash, another 48 hr

Compound	IC50 (SF-268; [1])	IC50 (MCF-7; [2])	IC50 (CCRF-CEM; [3])	IC50 (CEM/dCK-)	Factor* (Resistance Factor = Ratio of dCK- on Wild-type CCRF-CEM) (CEM/dCK-)	IC50 (H-460; [4])	IC50 (SF-268; read-out: IC50 SF-268 24 h, 24 h drug exposure, wash, another 48 hr)	IC50 (MCF-7; read-out: IC50 MCF-7 24 h, 24 h drug exposure, wash, another 48 hr)	IC50 (CCRF-CEM; read-out: IC50 CCRF-CEM 24 h, 24 h drug exposure, wash, another 48 hr)	IC50 (H-460; read-out: IC50 H-460 24 h, 24 h drug exposure, wash, another 48 hr)
COc1ccc(C(OC[C@H]2OC[C@@H](n3ccc(N)nc3=O)O2)(c2ccccc2)c2ccccc2)cc1 [Compound 134, 4-AMINO-1-{2-[(4- METHOXY-PHENYL)- DIPHENYL- METHOXYMETHYL]- [1,3]DIOXOLAN-4-YL}-1H- PYRIMIDIN-2-ONE]	3 µM	11 µM	7 µM	20 µM	3	12 µM	–	–	–	–
O=c1nc(NC2Sc3ccccc3S2)ccn1[C@@H]1CO[C@H](CO)O1 [Compound 136, 4-(BENZO[1,3]DITHIOL-2- YLAMINO)-1-(2- HYDROXYMETHYL- [1,3]DIOXOLAN-4-YL)- 1H!PYRIMIDIN-2-ONE]	3 µM	12 µM	4 µM	> 100 µM	>25	9 µM	–	–	–	–
Nc1ccn([C@@H]2CO[C@H](COC3Sc4ccccc4S3)O2)c(=O)n1 [Compound 138, 4-AMINO-1-[2- (BENZO[1,3]DITHIOL-2- YLOXYMETHYL)- [1,3]DIOXOLAN-4-YL]-1H- PYRIMIDIN-2-ONE]	2.1 µM	1.5 µM	0.53 µM	58 µM	109	0.92 µM	–	–	–	–
COC(OC)(OC[C@H]1OC[C@@H](n2ccc(N)nc2=O)O1)c1ccccc1 [Compound 139, 4-AMINO-1-[2- (DIMETHOXY-PHENYL- METHOXYMETHYL)- [1,3]DIOXOLAN-4-YL]-1H- PYRIMIDIN-2-ONE]	1.3 µM	1.4 µM	0.4 µM	> 100 µM	>250	0.81 µM	1.7 µM	1.7 µM	0.42 µM	0.51 µM
CN(Cc1ccccc1)C(=O)OC[C@H]1OC[C@@H](n2ccc(N)nc2=O)O1 [Compound 140, BENZYL-METHYL-CARBAMIC ACID 4-(4-AMINO-2-OXO- 2H-PYRIMIDIN-1-YL)- [1,3]DIOXOLAN-2- YLMETHYL ESTER]	3 µM	20 µM	11 µM	> 100 µM	>9	10 µM	–	–	–	–
CCCCC(OC)(OC)OC[C@H]1OC[C@@H](n2ccc(N)nc2=O)O1 [Compound 141, 4-AMINO-1-[2-(1,1- DIMETHOXY- PENTYLOXYMETHYL)- [1,3]DIOXOLAN-4-YL]-1H- PYRIMIDIN-2-ONE]	0.04 µM	0.066 µM	0.019 µM	69 µM	3,632	0.034 µM	–	–	–	–
CN(C)/C=N/c1ccn([C@@H]2CO[C@H](COC(=O)C(C)(C)c3ccccc3)O2)c(=O)n1 [Compound 142, (2S,4S)-2-(2″- DIMETHYLPHENYLACETOXY)M ETHYL-4-(4′-N,N- DIMETHYLAMINOMETHYLENE- CYTOSTN-1,-YL)-1,3- DIOXOLANE]	0.13 µM	0.029 µM	0.0072 µM	46 µM	6,389	0.038 µM	–	–	–	–
CN(C)/C=N/c1ccn([C@@H]2CO[C@H](COC(=O)Cc3ccc(N(C)C)cc3)O2)c(=O)n1 [Compound 143, (2S,4S)-2-(4″-N,N- DIMETHYLAMINOPHENYLACET OXY)METHYL-4-(4′-N,N- DIMETHYLAMINOMETHYLENE- CYTOSIN-1′-YL)-1,3- DIOXOLANE]	0.14 µM	0.0037 µM	0.0039 µM	32 µM	8,205	0.012 µM	–	–	–	–
O=c1nc(NC2(c3ccccc3)c3ccccc3Oc3ccccc32)ccn1[C@@H]1CO[C@H](COC2(c3ccccc3)c3ccccc3Oc3ccccc32)O1 [Compound 144, 4-(9-PHENYL-9#H!- XANTHEN-9-YLAMINO)-1- [2-(9-PHENYL-9#H!- XANTHEN-9-YLOXYMETHYL)- [1,3]DIOXOLAN-4-YL]- 1#H!-PYRIMIDIN-2-ONE]	1.9 µM	5.2 µM	0.71 µM	78 µM	110	3 µM	–	–	–	–
Nc1ccn([C@@H]2CO[C@H](COC3(c4ccccc4)c4ccccc4Oc4ccccc43)O2)c(=O)n1 [Compound 146, 4-AMINO-1-[2-(9-PHENYL- 9#H!-XANTHEN-9- YLOXYMETHYL)- [1,3]DIOXOLAN-4-YL]- 1#H!-PYRIMIDIN-2-ONE]	0.028 µM	1.2 µM	0.13 µM	50 µM	385	0.78 µM	–	–	–	–
Nc1ccn([C@@H]2CO[C@H](COC(=S)Oc3ccccc3)O2)c(=O)n1 [Compound 147, THIOCARBONIC ACID O- [4(S)-(4′-AMINO-2′-OXO- 2H-PYRIMIDIN-1′-YL)- [1,3]DIOXOLAN-2(S)- YLMETHYL] ESTER O- PHENYL ESTER]	0.017 µM	0.11 µM	0.025 µM	> 100 µM	>4000	0.06 µM	–	–	–	–
CCCCCCOC(=O)Nc1ccn([C@@H]2CO[C@H](COC(=O)OCCCCCC)O2)c(=O)n1 [Compound 150, CARBONIC ACID HEXYL ESTER 4-(4- HEXYLOXYCARBONYLAMINO- 2-OXO-2H-PYRIMIDIN-1- YL)-[1,3]DIOXOLAN-2- YLMETHYL ESTER]	1.3 µM	1.6 µM	0.13 µM	90 µM	692	0.96 µM	–	–	–	–
O=c1nc(NCn2nnc3ccccc32)ccn1[C@@H]1CO[C@H](CO)O1 [Compound 152, 4-[(BENZOTRIAZOL-1- YLMETHYL)-AMINO]-1-(2- HYDROXYMETHYL- [1,3]DIOXOLAN-4-YL)-1H- PYRIMIDIN-2-ONE]	31 µM	3 µM	0.79 µM	> 100 µM	>127	3.5 µM	–	–	–	–
O=C(Nc1ccn([C@@H]2CO[C@H](COC(=O)c3ccccc3)O2)c(=O)n1)OCc1ccccc1 [Compound 153, BENZOIC ACID 4-(4- BENZYLOXYCARBONYLAMINO- 2-OXO-2H-PYRIMIDIN-1- YL)-[1,3]DIOXOLAN-2- YLMETHYL ESTER]	59 µM	39 µM	0.21 µM	> 100 µM	>476	46 µM	–	–	–	–
CC(C)(OCc1ccccc1)OC[C@H]1OC[C@@H](n2ccc(N)nc2=O)O1 [Compound 154, 4-AMINO-1-[2-(1- BENZYLOXY-1-METHYL- ETHOXYMETHYL)- [1,3]DIOXOLAN-4-YL]-1H- PYRIMIDIN-2-ONE]	4.4 µM	1.6 µM	0.14 µM	> 100 µM	>714	0.76 µM	–	–	–	–
CC(C)C(C(=O)OC[C@H]1OC[C@@H](n2ccc(N)nc2=O)O1)N(C)C (stereo partly drawn) [Compound 156, (2S,4S)-2-(N,N- DIMETHYL-L- VALINYLOXYMETHYL)-4- CYTOSIN-1′-YL-1,3- DIOXOLANE]	0.93 µM	0.068 µM	0.007 µM	81 µM	11,571	0.12 µM	–	–	–	–
CC(C(=O)OC[C@H]1OC[C@@H](n2ccc(N)nc2=O)O1)C(c1ccccc1)c1ccccc1 (stereo partly drawn) [Compound 157, (2S,4S)-(3″-DIPHENYL- 2″- METHYLPROPIOXYMETHYL)- 4-CYTOSIN-1′-YL-1,3- DIOXOLANE]	2.2 µM	0.55 µM	0.012 µM	> 100 µM	>8333	0.024 µM	–	–	–	–
O=C(Nc1ccn([C@@H]2CO[C@H](COC(=O)OCCCCCl)O2)c(=O)n1)OCCCCCl [Compound 159, CARBONIC ACID 4-[4-(4- CHLORO- BUTOXYCARBONYLAMINO)-2- OXO-2H-PYRIMIDIN-1-YL]- [1,3]DIOXOLAN-2- YLMETHYL ESTER 4- CHLORO-BUTYL ESTER]	1.6 µM	0.72 µM	0.38 µM	> 100 µM	>263	0.87 µM	–	–	–	–
O=C(Nc1ccn([C@@H]2CO[C@H](CO)O2)c(=O)n1)OCCCCCl [Compound 160, [1-(2-HYDROXYMETHYL- [1,3]DIOXOLAN-4-YL)-2- OXO-1,2-DIHYDRO- PYRIMIDIN-4-YL]- CARBAMIC ACID 4-CHLORO- BUTYL ESTER]	1.2 µM	0.36 µM	0.36 µM	> 100 µM	>278	0.92 µM	–	–	–	–
